From ChEMBL document CHEMBL1146680, “A highly toxic morphine-3-glucuronide derivative” (Bioorg Med Chem Lett, 2004)
Calls of active or inactive are those of the source. The rule behind the calls is not given here.

Assays:
Rattus norvegicus [1] = assay: Reversion of toxic effect (1 ng/kg) by naloxone given 20 mins (before the compound) at a dose of 5 mg/kg; no improvement in survival observed; type: ADME, organism-based; parameters: dose 5 mg/kg; details: in vivo
Rattus norvegicus [2] = assay: Reversion of toxic effect (1 ng/kg) by naloxone given 20 mins (after the compound) at a dose of 10 mg/kg; no improvement in survival observed; type: ADME, organism-based; parameters: dose 10 mg/kg; details: in vivo
Rattus norvegicus [3] = assay: Reversion of toxic effect (1 ng/kg) by naloxone given 10 mins (before the compound) at a dose of 10 mg/kg; no improvement in survival observed; type: ADME, organism-based; parameters: dose 10 mg/kg; details: in vivo
Rattus norvegicus [4] = assay: Reversion of toxic effect (1 ng/kg) by naloxone given 10 mins (before the compound) at a dose of 5 mg/kg; no improvement in survival observed; type: ADME, organism-based; parameters: dose 5 mg/kg; details: in vivo
Rattus norvegicus [5] = assay: Reversion of toxic effect (1 ng/kg) by naloxone given 10 mins (after the compound) at a dose of 1 mg/kg; no improvement in survival observed; type: organism-based; parameters: dose 1 mg/kg; details: in vivo
Rattus norvegicus [6] = assay: Reversion of toxic effect (1 ng/kg) by naloxone given 15 mins (after the compound) at a dose of 1 mg/kg; no improvement in survival observed; type: organism-based; parameters: dose 1 mg/kg; details: in vivo, 0.25 h
Rattus norvegicus [7] = assay: Reversion of toxic effect (1 ng/kg) by naloxone given 30 mins (after the compound) at a dose of 1 mg/kg; no improvement in survival observed; type: ADME, organism-based; parameters: dose 1 mg/kg; details: in vivo, 0.5 h
Rattus norvegicus [8] = assay: Reversion of toxic effect (1 ng/kg) by naloxone given 10 mins (after the compound) at a dose of 10 mg/kg; no improvement in survival observed; type: ADME, organism-based; parameters: dose 10 mg/kg; details: in vivo
Rattus norvegicus [9] = assay: Reversion of toxic effect (1 ng/kg) by naloxone given 15 mins (before the compound) at a dose of 10 mg/kg; no improvement in survival observed; type: organism-based; parameters: dose 10 mg/kg; details: in vivo, 0.25 h
Rattus norvegicus [10] = assay: Reversion of toxic effect (1 ng/kg) by naloxone given 20 mins (after the compound) at a dose of 1 mg/kg; no improvement in survival observed; type: ADME, organism-based; parameters: dose 1 mg/kg; details: in vivo
Rattus norvegicus [11] = assay: Effect on rats after 30 mins of 0.05 mg/kg administration; death observed; type: ADME, organism-based; parameters: dose 0.05 mg/kg; details: in vivo, 0.5 h
Rattus norvegicus [12] = assay: Effect on rats after 30 mins of 2.5 mg/kg administration; death observed; type: ADME, organism-based; parameters: dose 2.5 mg/kg; details: in vivo, 0.5 h
Rattus norvegicus [13] = assay: Reversion of toxic effect (1 ng/kg) by naloxone given 10 mins (before the compound) at a dose of 1 mg/kg; no improvement in survival observed; type: organism-based; parameters: dose 1 mg/kg; details: in vivo
Rattus norvegicus [14] = assay: Reversion of toxic effect (1 ng/kg) by naloxone given 30 mins (after the compound) at a dose of 5 mg/kg; no improvement in survival observed; type: ADME, organism-based; parameters: dose 5 mg/kg; details: in vivo, 0.5 h
Rattus norvegicus [15] = assay: Reversion of toxic effect (1 ng/kg) by naloxone given 30 mins (after the compound) at a dose of 10 mg/kg; no improvement in survival observed; type: organism-based; parameters: dose 10 mg/kg; details: in vivo, 0.5 h
Rattus norvegicus [16] = assay: Effect on rats after 30 mins of 1 ng/kg administration; death observed; type: ADME, organism-based; details: in vivo, 1e-06 mg/kg, 0.5 h
Rattus norvegicus [17] = assay: Effect on rats after 30 mins of 0.005 mg/kg administration; death observed; type: ADME, organism-based; parameters: dose 0.005 mg/kg; details: in vivo, 0.5 h
Rattus norvegicus [18] = assay: Reversion of toxic effect (1 ng/kg) by naloxone given 15 mins (after the compound) at a dose of 10 mg/kg; no improvement in survival observed; type: ADME, organism-based; parameters: dose 10 mg/kg; details: in vivo, 0.25 h
Rattus norvegicus [19] = assay: Effect on rats after 30 mins of 5 mg/kg administration; death observed; type: ADME, organism-based; parameters: dose 5 mg/kg; details: in vivo, 0.5 h
Rattus norvegicus [20] = assay: Reversion of toxic effect (1 ng/kg) by naloxone given 15 mins (before the compound) at a dose of 5 mg/kg; no improvement in survival observed; type: ADME, organism-based; parameters: dose 5 mg/kg; details: in vivo, 0.25 h
Rattus norvegicus [21] = assay: Reversion of toxic effect (1 ng/kg) by naloxone given 20 mins (before the compound) at a dose of 1 mg/kg; no improvement in survival observed; type: organism-based; parameters: dose 1 mg/kg; details: in vivo
Rattus norvegicus [22] = assay: Reversion of toxic effect (1 ng/kg) by naloxone given 15 mins (before the compound) at a dose of 1 mg/kg; no improvement in survival observed; type: organism-based; parameters: dose 1 mg/kg; details: in vivo, 0.25 h
Rattus norvegicus [23] = assay: Reversion of toxic effect (1 ng/kg) by naloxone given 15 mins (after the compound) at a dose of 5 mg/kg; no improvement in survival observed; type: ADME, organism-based; parameters: dose 5 mg/kg; details: in vivo, 0.25 h
Rattus norvegicus [24] = assay: Effect on rats after 30 mins of 1 mg/kg administration; death observed; type: ADME, organism-based; parameters: dose 1 mg/kg; details: in vivo, 0.5 h
Rattus norvegicus [25] = assay: Reversion of toxic effect (1 ng/kg) by naloxone given 10 mins (after the compound) at a dose of 5 mg/kg; no improvement in survival observed; type: ADME, organism-based; parameters: dose 5 mg/kg; details: in vivo
Rattus norvegicus [26] = assay: Effect on rats after 30 mins of 0.5 mg/kg administration; death observed; type: ADME, organism-based; parameters: dose 0.5 mg/kg; details: in vivo, 0.5 h
Rattus norvegicus [27] = assay: Reversion of toxic effect (1 ng/kg) by naloxone given 20 mins (before the compound) at a dose of 10 mg/kg; no improvement in survival observed; type: ADME, organism-based; parameters: dose 10 mg/kg; details: in vivo
Rattus norvegicus [28] = assay: Reversion of toxic effect (1 ng/kg) by naloxone given 20 mins (after the compound) at a dose of 5 mg/kg; no improvement in survival observed; type: organism-based; parameters: dose 5 mg/kg; details: in vivo
Mus musculus [29] = assay: Effect after 1 ng/kg i.p. administration was measured by mice tail flick test; no analgesia observed; type: functional, organism-based
Mus musculus [30] = assay: Effect after 1 ng/kg i.p. administration was measured by mice paw pressure test; no analgesia observed; type: functional, organism-based
Rattus norvegicus [31] = assay: Opioid antagonist activity (1 mg/kg, peripherally) was determined by measuring the analgesia produced by morphine given 10 mins (after the compound) at a dose of 5 mg/kg; no effect; type: functional, organism-based; parameters: dose 5 mg/kg
Rattus norvegicus [32] = assay: Opioid antagonist activity (5 mg/kg, peripherally) was determined by measuring the analgesia produced by morphine given 10 mins (after the compound) at a dose of 5 mg/kg; no effect; type: functional, organism-based; parameters: dose 5 mg/kg
Rattus norvegicus [33] = assay: Opioid antagonist activity (30 mg/kg, peripherally) was determined by measuring the analgesia produced by morphine given 10 mins (after the compound) at a dose of 5 mg/kg; no effect; type: functional, organism-based; parameters: dose 5 mg/kg
Rattus norvegicus [34] = assay: Opioid agonist activity by measuring the analgesia produced after 1 mg/kg administration in rats; none; type: functional, organism-based; parameters: dose 1 mg/kg
Rattus norvegicus [35] = assay: Opioid agonist activity by measuring the analgesia produced after 5 mg/kg administration in rats; none; type: functional, organism-based; parameters: dose 5 mg/kg
Rattus norvegicus [36] = assay: Opioid agonist activity by measuring the analgesia produced after 10 mg/kg administration in rats; none; type: functional, organism-based; parameters: dose 10 mg/kg
Rattus norvegicus [37] = assay: Analgesic effect on rats after 30 mins of 5 mg/kg administration; value ranges from 60-70%; type: functional
Rattus norvegicus [38] = assay: Opioid antagonist activity (1 mg/kg, peripherally) was determined by measuring the analgesia produced by morphine given 20 mins (after the compound) at a dose of 5 mg/kg; no effect; type: functional, organism-based; parameters: dose 5 mg/kg
Rattus norvegicus [39] = assay: Inhibition of analgesia by (5 mg/kg) administered 10 min after morphine (5 mg/kg); inhibited; type: functional, organism-based
Rattus norvegicus [40] = assay: Effect after 10 mg/kg i.p. administration was measured by rat paw pressure test; no analgesia observed; type: functional, organism-based; parameters: dose 10 mg/kg
Rattus norvegicus [41] = assay: Effect after 5 mg/kg i.p. administration was measured by rat paw pressure test; no analgesia observed; type: functional, organism-based; parameters: dose 5 mg/kg
Rattus norvegicus [42] = assay: Effect after 1 mg/kg i.p. administration was measured by rat paw pressure test; no analgesia observed; type: functional, organism-based; parameters: dose 1 mg/kg
Rattus norvegicus [43] = assay: Effect after 5 mg/kg i.p. administration was measured by rat tail flick test; no analgesia observed; type: functional, organism-based; parameters: dose 5 mg/kg
Rattus norvegicus [44] = assay: Effect after 1 mg/kg i.p. administration was measured by rat tail flick test; no analgesia observed; type: functional, organism-based; parameters: dose 1 mg/kg
Rattus norvegicus [45] = assay: Effect after 10 mg/kg i.p. administration was measured by rat tail flick test; no analgesia observed; type: functional, organism-based; parameters: dose 10 mg/kg

**Q.** What does the source list for CCCCCCCCNC(=O)C1OC(Oc2ccc3c4c2O[C@H]2[C@@H](O)C=C[C@H]5[C@@H](C3)N(C)CC[C@@]452)C(O)C(O)C1O (stereo not given in full)?
**A.** Activity (Rattus norvegicus [1]): no improvement in survival; Activity (Rattus norvegicus [2]): no improvement in survival; Activity (Rattus norvegicus [3]): no improvement in survival; Activity (Rattus norvegicus [4]): no improvement in survival; Activity (Rattus norvegicus [5]): no improvement in survival; Activity (Rattus norvegicus [6]): no improvement in survival; Activity (Rattus norvegicus [7]): no improvement in survival; Activity (Rattus norvegicus [8]): no improvement in survival; Activity (Rattus norvegicus [9]): no improvement in survival; Activity (Rattus norvegicus [10]): no improvement in survival; Effect (Rattus norvegicus [11]): Death; Effect (Rattus norvegicus [12]): Death; Activity (Rattus norvegicus [13]): no improvement in survival; Activity (Rattus norvegicus [14]): no improvement in survival; Activity (Rattus norvegicus [15]): no improvement in survival; Effect (Rattus norvegicus [16]): Death; Effect (Rattus norvegicus [17]): Death; Activity (Rattus norvegicus [18]): no improvement in survival; Effect (Rattus norvegicus [19]): Death; Activity (Rattus norvegicus [20]): no improvement in survival; Activity (Rattus norvegicus [21]): no improvement in survival; Activity (Rattus norvegicus [22]): no improvement in survival; Activity (Rattus norvegicus [23]): no improvement in survival; Effect (Rattus norvegicus [24]): Death; Activity (Rattus norvegicus [25]): no improvement in survival; Effect (Rattus norvegicus [26]): Death; Activity (Rattus norvegicus [27]): no improvement in survival; Activity (Rattus norvegicus [28]): no improvement in survival; Effect (Mus musculus [29]): Death; Effect (Mus musculus [30]): Death

**Q.** What does the source list for C=CCN1CC[C@]23c4c5ccc(O)c4O[C@H]2C(=O)CC[C@@]3(O)[C@H]1C5?
**A.** Activity (Rattus norvegicus [31]): inactive; Activity (Rattus norvegicus [32]): inactive; Activity (Rattus norvegicus [33]): inactive

**Q.** How did the Activity (Rattus norvegicus [34]) turn out when CN1CC[C@]23c4c5ccc(O[C@@H]6O[C@H](C(=O)O)[C@@H](O)[C@H](O)[C@H]6O)c4O[C@H]2[C@@H](O)C=C[C@H]3[C@H]1C5 (stereo in doubt; form 2) was run?
**A.** Its Activity is “inactive”.

**Q.** What about the Activity (Rattus norvegicus [35]) of the same compound?
**A.** Its Activity is “inactive”.

**Q.** And the Activity (Rattus norvegicus [36])?
**A.** Its Activity is “inactive”.

**Q.** With CN1CC[C@]23c4c5ccc(O)c4O[C@H]2[C@@H](O)C=C[C@H]3[C@H]1C5 [MORPHINE] as the compound, how does the Effect (Rattus norvegicus [37]) read?
**A.** Its Effect is 70%.

**Q.** What does the source list for CN1CC[C@]23c4c5ccc(O[C@@H]6O[C@H](C(=O)O)[C@@H](O)[C@H](O)[C@H]6O)c4O[C@H]2[C@@H](O)C=C[C@H]3[C@H]1C5 (stereo in doubt; form 1)?
**A.** Activity (Rattus norvegicus [38]): inactive; Activity (Rattus norvegicus [34]): inactive; Activity (Rattus norvegicus [35]): inactive; Activity (Rattus norvegicus [32]): inactive; Activity (Rattus norvegicus [33]): inactive; Activity (Rattus norvegicus [36]): inactive

**Q.** CN1CC[C@]23c4c5ccc(OC6OC(C(N)=O)C(O)C(O)C6O)c4O[C@H]2[C@@H](O)C=C[C@H]3[C@H]1C5 (stereo not given in full) was tested. Which Activity (Rattus norvegicus [39]) did it give?
**A.** Its Activity is “inhibited”.

**Q.** What about the Effect (Rattus norvegicus [40]) of the same compound?
**A.** The Effect was “no analgesia observed”.

**Q.** What about the Effect (Rattus norvegicus [41]) of the same compound?
**A.** The Effect was “no analgesia observed”.

**Q.** And the Effect (Rattus norvegicus [42])?
**A.** The Effect was “no analgesia observed”.

**Q.** What about the Effect (Rattus norvegicus [43]) of the same compound?
**A.** The Effect was “no analgesia observed”.

**Q.** What about the Effect (Rattus norvegicus [44]) of the same compound?
**A.** The Effect was “no analgesia observed”.

**Q.** What about the Effect (Rattus norvegicus [45]) of the same compound?
**A.** Its Effect is “no analgesia observed”.
